Experimental data from patent publication US7741327B2 (Hoffmann-La Roche Inc., priority 2008, dated 2010).

Molecular target: T1, Recombinant human liver GK1 (GST-GK) (Homo sapiens, UniProt P35557)
T1 construct: made in house; host or cells: E. coli
T1 sequence (P35557 1-466 isoform P35557-2): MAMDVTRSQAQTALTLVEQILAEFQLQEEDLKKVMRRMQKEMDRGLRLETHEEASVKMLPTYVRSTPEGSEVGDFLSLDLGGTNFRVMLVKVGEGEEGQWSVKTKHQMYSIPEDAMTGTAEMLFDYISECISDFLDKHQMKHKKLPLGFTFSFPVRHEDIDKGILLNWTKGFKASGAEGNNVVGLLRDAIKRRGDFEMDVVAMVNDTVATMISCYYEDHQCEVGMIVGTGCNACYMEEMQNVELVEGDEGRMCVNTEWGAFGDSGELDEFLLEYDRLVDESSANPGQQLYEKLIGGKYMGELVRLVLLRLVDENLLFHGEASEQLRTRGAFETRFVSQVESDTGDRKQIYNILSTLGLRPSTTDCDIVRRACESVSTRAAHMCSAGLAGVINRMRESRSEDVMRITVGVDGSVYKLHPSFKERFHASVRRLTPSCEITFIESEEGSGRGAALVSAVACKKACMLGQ
Assay: In vitro glucokinase activity (G6PDH-coupled NADH assay)
Format: biochemical
Conditions: 30° C., 5 mM D-glucose, 10% DMSO
How it was run: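 Activation measured as the rate of OD340 rise from G6PDH-coupled NADH production, relative to 10% DMSO control, reported as SC1.5 (concentration for 50% activity increase). Conditions: 30° C, pH 7.1 Hepes, 5 mM glucose, 1 mM ATP, purified recombinant GST-human GK1, compound preincubated 10 min before enzyme addition.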

SMILES | SC1.5 (concentration of activator that produced a 50% increase in the activity of GK)
CC(C)(O)Cn1ccc(NC(=O)[C@H](CC2CCCCC2)N2CC(OCC3COc4ccccc4O3)=CC2=O)n1 (stereo partly drawn) [Example 60, (S)-3-Cyclohexyl-2-[4-(2,3-dihydro-benzo[1,4]dioxin-2-ylmethoxy)-2-oxo-2,5-dihydro-pyrrol-1-yl]-N-[1-(2-hydroxy-2-methyl-propyl)-1-H-pyrazol-3-yl]-propionamide] | 0.99 µM
CC(C)(O)Cn1ccc(NC(=O)[C@H](CC2CCCCC2)N2CC(Oc3ccccc3Cl)=CC2=O)n1 [Example 61, (S)-2-[4-(2-Chloro-phenoxy)-2-oxo-2,5-dihydro-pyrrol-1-yl]-3-cyclohexyl-N-[1-(2-hydroxy-2-methyl-propyl)-1-H-pyrazol-3-yl]-propionamide] | 0.006 µM
CC1(C)OC[C@@H](Cn2ccc(NC(=O)[C@H](CC3CCCCC3)N3CC(Oc4ccccc4Cl)=CC3=O)n2)O1 [Example 62] | 0.01 µM
O=C(Nc1ccn(C[C@@H](O)CO)n1)[C@H](CC1CCCCC1)N1CC(Oc2ccccc2Cl)=CC1=O [Example 63, (S)-2-[4-(2-Chloro-phenoxy)-2-oxo-2,5-dihydro-pyrrol-1-yl]-3-cyclohexyl-N-[1-((R)-2,3-dihydroxy-propyl)-1-H-pyrazol-3-yl]-propionamide] | 0.009 µM
CC(C)C[C@@H](C(=O)Nc1ccn(C[C@@H]2COC(C)(C)O2)n1)N1CC(Oc2ccccc2Cl)=CC1=O [Example 65] | 0.527 µM
CC(C)(O)Cn1ccc(NC(=O)[C@H](CC2CCCCC2)N2CC(Oc3c(F)cccc3Cl)=CC2=O)n1 [Example 67, (S)-2-[4-(2-Chloro-6-fluoro-phenoxy)-2-oxo-2,5-dihydro-pyrrol-1-yl]-3-cyclohexyl-N-[1-(2-hydroxy-2-methyl-propyl)-1H-pyrazol-3-yl]-propionamide] | 0.028 µM
Cn1ccc(NC(=O)[C@H](CC2CCCCC2)N2CC(Oc3c(F)cccc3Cl)=CC2=O)n1 [Example 68, (S)-2-[4-(2-Chloro-6-fluoro-phenoxy)-2-oxo-2,5-dihydro-pyrrol-1-yl]-3-cyclohexyl-N-(1-methyl-1H-pyrazol-3-yl)-propionamide] | 0.055 µM
COC(=O)c1ccc(NC(=O)[C@H](CC2CCCCC2)N2CC(Oc3c(F)cccc3Cl)=CC2=O)nc1 [Example 69, 6-{(S)-2-[4-(2-Chloro-6-fluoro-phenoxy)-2-oxo-2,5-dihydro-pyrrol-1-yl]-3-cyclohexyl-propionylamino}-nicotinic acid methyl ester] | 0.047 µM
O=C(O)c1ccc(NC(=O)[C@H](CC2CCCCC2)N2CC(Oc3c(F)cccc3Cl)=CC2=O)nc1 [Example 70, 6-{(S)-2-[4-(2-Chloro-6-fluoro-phenoxy)-2-oxo-2,5-dihydro-pyrrol-1-yl]-3-cyclohexyl-propionylamino}-nicotinic acid] | 0.048 µM
Cl.O=C(Nc1cnccn1)[C@H](CC1CCCCC1)N1CC(Oc2c(F)cccc2Cl)=CC1=O [Example 71, (S)-2-[4-(2-Chloro-6-fluoro-phenoxy)-2-oxo-2,5-dihydro-pyrrol-1-yl]-3-cyclohexyl-N-pyrazin-2-yl-propionamide Hydrochloride] | 0.058 µM
CC(C)(O)Cn1ccc(NC(=O)[C@H](CC2CCCCC2)N2CC(Oc3c(F)ccc(Cl)c3F)=CC2=O)n1 [Example 72, (S)-2-[4-(3-Chloro-2,6-difluoro-phenoxy)-2-oxo-2,5-dihydro-pyrrol-1-yl]-3-cyclohexyl-N-[1-(2-hydroxy-2-methyl-propyl)-1H-pyrazol-3-yl]-propionamide] | 0.024 µM
COC(=O)c1ccc(NC(=O)[C@H](CC2CCCCC2)N2CC(Oc3c(F)ccc(Cl)c3F)=CC2=O)nc1 [Example 73, 6-{(S)-2-[4-(3-Chloro-2,6-difluoro-phenoxy)-2-oxo-2,5-dihydro-pyrrol-1-yl]-3-cyclohexyl-propionylamino}-nicotinic acid methyl ester] | 0.036 µM
O=C(O)c1ccc(NC(=O)[C@H](CC2CCCCC2)N2CC(Oc3c(F)ccc(Cl)c3F)=CC2=O)nc1 [Example 74, 6-{(S)-2-[4-(3-Chloro-2,6-difluoro-phenoxy)-2-oxo-2,5-dihydro-pyrrol-1-yl]-3-cyclohexyl-propionylamino}-nicotinic acid] | 0.055 µM
Cl.Cn1ccc(NC(=O)[C@H](CC2CCCCC2)N2CC(Oc3c(F)ccc(Cl)c3F)=CC2=O)n1 [Example 75, (S)-2-[4-(3-Chloro-2,6-difluoro-phenoxy)-2-oxo-2,5-dihydro-pyrrol-1-yl]-3-cyclohexyl-N-(1-methyl-1H-pyrazol-3-yl)-propionamide Hydrochloride] | 0.037 µM
Cl.O=C(Nc1ccn(C[C@@H](O)CO)n1)[C@H](CC1CCCCC1)N1CC(Oc2c(F)ccc(Cl)c2F)=CC1=O [Example 76, (S)-2-[4-(3-Chloro-2,6-difluoro-phenoxy)-2-oxo-2,5-dihydro-pyrrol-1-yl]-3-cyclohexyl-N-[1-((R)-2,3-dihydroxy-propyl)-1H-pyrazol-3-yl]-propionamide Hydrochloride] | 0.017 µM
CC(C)C[C@@H](C(=O)Nc1ccn(C)n1)N1CC(Oc2cccc(Cl)c2Cl)=CC1=O.Cl [Example 78, (S)-2-[4-(2,3-Dichloro-phenoxy)-2-oxo-2,5-dihydro-pyrrol-1-yl]-4-methyl-pentanoic acid (1-methyl-1H-pyrazol-3-yl)-amide Hydrochloride] | 0.4 µM
CC(C)C[C@@H](C(=O)Nc1ccn(C[C@@H]2COC(C)(C)O2)n1)N1CC(Oc2cccc(Cl)c2Cl)=CC1=O [Example 79, (S)-2-[4-(2,3-Dichloro-phenoxy)-2-oxo-2,5-dihydro-pyrrol-1-yl]-4-methyl-pentanoic acid [1-((R)-2,2-dimethyl-[1,3]dioxolan-4-yl-methyl)-1H-pyrazol-3-yl]-amide] | 0.682 µM
CC(C)C[C@@H](C(=O)Nc1ccn(C[C@@H](O)CO)n1)N1CC(Oc2cccc(Cl)c2Cl)=CC1=O.Cl [Example 80, (S)-2-[4-(2,3-Dichloro-phenoxy)-2-oxo-2,5-dihydro-pyrrol-1-yl]-4-methyl-pentanoic acid [1-((R)-2,3-dihydroxy-propyl)-1H-pyrazol-3-yl]-amide Hydrochloride] | 0.211 µM
CCOc1ccccc1OC1=CC(=O)N([C@@H](CC(C)C)C(=O)Nc2ccn(CC(C)(C)O)n2)C1.Cl [Example 81, (S)-2-[4-(2-ethoxy-phenoxy)-2-oxo-2,5-dihydro-pyrrol-1-yl]-4-methyl pentanoic acid [1-(2-hydroxy-2-methyl-propyl)-1H-pyrazol-3-yl]-amide hydrochloride] | 0.932 µM
CCOc1ccccc1OC1=CC(=O)N([C@@H](CC(C)C)C(=O)Nc2ccn(C)n2)C1.Cl [Example 82, (S)-2-[4-(2-Ethoxy-phenoxy)-2-oxo-2,5-dihydro-pyrrol-1-yl]-4-methyl-pentanoic acid (1-methyl-1H-pyrazol-3-yl)-amide Hydrochloride] | 2.591 µM
CCOc1ccccc1OC1=CC(=O)N([C@@H](CC(C)C)C(=O)Nc2ccn(C[C@@H]3COC(C)(C)O3)n2)C1 [Example 83, (S)-2-[4-(2-Ethoxy-phenoxy)-2-oxo-2,5-dihydro-pyrrol-1-yl]-4-methyl-pentanoic acid [1-((R)-2,2-dimethyl-[1,3]dioxolan-4-yl-methyl)-1H-pyrazol-3-yl]-amide] | 8.055 µM
CCOc1ccccc1OC1=CC(=O)N([C@@H](CC(C)C)C(=O)Nc2ccn(C[C@@H](O)CO)n2)C1.Cl [Example 84, (S)-2-[4-(2-Ethoxy-phenoxy)-2-oxo-2,5-dihydro-pyrrol-1-yl]-4-methyl-pentanoic acid [1-((R)-2,3-dihydroxy-propyl)-1H-pyrazol-3-yl]-amide Hydrochloride] | 1.312 µM
CCOc1ccccc1OC1=CC(=O)N([C@@H](CC(C)C)C(=O)Nc2ccn(CCO)n2)C1.Cl [Example 85, (S)-2-[4-(2-Ethoxy-phenoxy)-2-oxo-2,5-dihydro-pyrrol-1-yl]-4-methyl-pentanoic acid [1-(2-hydroxy-ethyl)-1H-pyrazol-3-yl]-amide Hydrochloride] | 1.998 µM
